Data published in paper PMC7717691, “Design, synthesis, and anticonvulsant effects evaluation of nonimidazole histamine H3 receptor antagonists/inverse agonists containing triazole moiety” (Journal of Enzyme Inhibition and Medicinal Chemistry, 2020).
Structures can show the parent of a compound that is named as a salt. Where two headings read alike, the source gives them in different places.

Experiments:
H3R = target: T1, H3R (Homo sapiens, UniProt Q9Y5N1); assay: CRE-driven luciferase reporter gene assay, H3R antagonistic activity; type: cell-based; conditions: for % Antagonism 100 nM: 100 nM compound; for % Antagonism 100 nM / % Antagonism 1 μM: HEK-293 cells expressing human H3R, mean ± SD of three experiments; for % Antagonism 1 μM: 1 μM compound; for IC50: CRE luciferase assay, HEK-293 cells, Table 1
T1 construct: expressed in transfected cells
T1 sequence (Q9Y5N1 whole entry): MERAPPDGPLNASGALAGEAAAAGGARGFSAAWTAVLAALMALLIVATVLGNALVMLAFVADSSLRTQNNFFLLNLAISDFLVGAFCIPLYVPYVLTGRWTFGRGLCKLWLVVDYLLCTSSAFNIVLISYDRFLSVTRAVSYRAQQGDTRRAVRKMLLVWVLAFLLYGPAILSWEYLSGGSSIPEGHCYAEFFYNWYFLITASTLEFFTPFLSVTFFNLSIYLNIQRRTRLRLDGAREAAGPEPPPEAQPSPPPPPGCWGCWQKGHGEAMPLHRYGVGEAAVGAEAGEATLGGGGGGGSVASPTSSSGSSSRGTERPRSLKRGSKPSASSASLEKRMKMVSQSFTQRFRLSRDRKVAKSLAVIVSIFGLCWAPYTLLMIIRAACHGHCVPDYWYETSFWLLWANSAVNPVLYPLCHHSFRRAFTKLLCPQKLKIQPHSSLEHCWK
Description: cAMP-response element (CRE) reporter gene assay has been extensively used to evaluate the efficacy of GPCR antagonists or agonists. […] Initially, compounds and positive controls were tested at two concentrations (100 nM and 1 µM) to obtain the preliminary investigation of their H3R antagonistic activities. In the assays, the antagonistic activities was positively correlated with the rise of the fluorescence value and indicated by the % antagonism. For the prominent compounds IC50 values were determined at additional assays.
Human thalamus poly-A RNA (Clontech, Palo Alto, CA, USA) was used to clone the hH3R gene by RT-PCR. DNA PCR primers were designed in the light of the reported human histamine receptor gene sequences (GenBank accession no.AF140538). HEK-293 cells were cultured and transfected for the luciferase assay. The detailed procedures were described in the previous publication.
Stable HEK-293 cells, which had been co-transfected with H3R and pCRE-Luc, were seeded in a 96-well plate overnight, and were grown to 90–95% confluence[43]^,[44]. Then the cells were treated with various concentrations of tested compounds in serum-free DMEM and incubated for 20 min. Cells were then stimulated with 100 nM Histamine in serum-free DMEM containing 2 µM Forskolin and incubated for 4 h at 37 °C. Firefly luciferase assay kits (Ken-real, Shanghai, China) were used to determine the luciferase activity.

MES-induced convulsions = MES-induced convulsions model; type: in vivo; conditions: mice; for protection against MES-induced convulsions (reduction or abolition of THLE): 10 mg/kg, i.p., 30 min before stimulation, vs saline group
Description: Protection for the mice was defined as the reduction or abolition of the tonic hind limb extension (THLE) in the MES model in mice.
Ear stimulation with alternating current (0.2 s, 60 Hz, 50 mA) was used to induce the seizures in mice. The reduction or abolition of the hind limb tonic extension (THLE) of mice was considered protective against the MES-induced seizures[29]^,[48]. […]

PTZ = conditions: cited from earlier work
MES [1] = conditions: cited from earlier work
intracellular cAMP = assay: Effect of compounds administrated alone on the level of intracellular cAMP; type: cell-based; conditions: for effect on the level of cAMP when treated alone: compound alone, ANOVA followed by Dunnett's test, Figure 2
Description: It is well known that H3R is a GPCR coupled with Gαi. When the ligand (histamine) binds to H3R, the dissociated Gαi inhibits the activity of adenylate cyclase (AC) and down-regulates the level of intracellular cAMP. In this CREs driven luciferase assay, when cells were pre-treated by H3R antagonists, the downregulation of cAMP would be inhibited, and the level of intracellular cAMP would regain to the initial level.

MES [2] = conditions: cited from earlier work; remark: listed apart in the source

melting point [°C] | % Antagonism 100 nM (H3R) [%] | % Antagonism 1 μM (H3R) [%] | Structure (SMILES) | protection against MES-induced convulsions (reduction or abolition of THLE) (MES-induced convulsions) | other results
85 to 87 | 45.04 ± 3.61 | 94.20 ± 2.60 | Cl.c1cc(-n2cnnc2)ccc1OCCN1CCCCC1 [Compound 3o, 1-(2-(4–(4H-1,2,4-triazol-4-yl)phenoxy)ethyl)piperidine hydrochloride] | moderate protection | IC50 (H3R): 250 nM
196 to 198 | −4.2 ± 3.11 | 6.12 ± 2.05 | NC(=O)C1CCN(CCCOc2ccc(-n3cnnc3)cc2)CC1 [Compound 3j, 1-(3-(4-(4H-1,2,4-triazol-4-yl)phenoxy)propyl)piperidine-4-carboxamide] | – | –
180 to 183 | 13.24 ± 4.83 | 15.02 ± 4.03 | CCCN(CCC)CCCOc1ccc(-n2cnnc2)cc1.Cl [Compound 3b, 3-(4-(4H-1,2,4-triazol-4-yl)phenoxy)-N,N-dipropylpropan-1-amine hydrochloride] | – | –
237 to 239 | −0.76 ± 4.87 | 20.24 ± 7.56 | Cl.c1cc(-n2cnnc2)ccc1OCCCN1CCOCC1 [Compound 3g, 4-(3-(4-(4H-1,2,4-triazol-4-yl)phenoxy)propyl)morpholine hydrochloride] | moderate protection | –
120 to 122 | 32.23 ± 5.69 | 143.98 ± 16.16 | Cl.c1cc(-n2cnnc2)ccc1OCCCN1CCCC1 [Compound 3c, 4-(4-(3-(pyrrolidin-1-yl)propoxy)phenyl)-4H-1,2,4-triazole hydrochloride] | did not achieve a significant difference from the control group | IC50 (H3R): 553 nM; effect on the level of cAMP when treated alone (intracellular cAMP): no significant effects
80 to 82 | 25.00 ± 3.95 | 90.52 ± 5.71 | Cl.c1cc(-n2cnnc2)ccc1OCCCCN1CCCCC1 [Compound 3p, 1-(4–(4-(4H-1,2,4-triazol-4-yl)phenoxy)butyl)piperidine hydrochloride] | did not achieve a significant difference from the control group | IC50 (H3R): 3440 nM
249 to 252 | 10.56 ± 7.94 | 239.79 ± 3.17 | c1cc(-n2cnnc2)ccc1OCCCN1CCCCC1 [Compound 3h, 1–(3-(4-(4H-1,2,4-triazol-4-yl)phenoxy)propyl)piperidine] | moderate protection | IC50 (H3R): 127 nM; effect on the level of cAMP when treated alone (intracellular cAMP): no significant effects
220 to 223 | 9.86 ± 0.87 | 21.78 ± 3.04 | CN1CCN(CCCOc2ccc(-n3cnnc3)cc2)CC1.Cl [Compound 3e, 1-(3-(4-(4H-1,2,4-triazol-4-yl)phenoxy)propyl)-4-methylpiperazine hydrochloride] | – | –
146 to 148 | 11.33 ± 5.86 | 79.4 ± 4.50 | Cl.Cl.c1cc(-n2cnnc2)ccc1OCCCN1CCNCC1 [Compound 3d, 1-(3-(4-(4H-1,2,4-triazol-4-yl)phenoxy)propyl)piperazine dihydrochloride] | – | –
124 to 126 | 5.19 ± 2.06 | 16.45 ± 1.90 | c1ccc(C2CCN(CCCOc3ccc(-n4cnnc4)cc3)CC2)cc1 [Compound 3i, 1-(3-(4-(4H-1,2,4-triazol-4-yl)phenoxy)propyl)-4-phenylpiperidine] | – | –
– | 1.88 ± 12.38 | 2.39 ± 13.85 | c1cc(-n2cnnc2)ccc1OCCCCCN1CCCCC1 [Compound 3q, 1-(5-(4-(4H-1,2,4-triazol-4-yl)phenoxy)pentyl)piperidine] | – | –
172 to 174 | 9.96 ± 10.9 | 24.41 ± 6.30 | c1ccc(N2CCN(CCCOc3ccc(-n4cnnc4)cc3)CC2)cc1 [Compound 3f, 1-(3-(4-(4H-1,2,4-triazol-4-yl)phenoxy)propyl)-4-phenylpiperazine] | – | –
70 to 74 | – | – | c1cc(-n2cnnc2)ccc1OCCCCCN1CCCCC1 (as salt: HCl) [Compound 3q, 1-(5-(4-(4H-1,2,4-triazol-4-yl)phenoxy)pentyl)piperidine] | – | –
105 to 106 | 49.85 ± 9.73 | 223.76 ± 7.56 | CCN(CC)CCCOc1ccc(-n2cnnc2)cc1.Cl [Compound 3a, 3-(4-(4H-1,2,4-triazol-4-yl)phenoxy)-N,N-diethylpropan-1-amine hydrochloride] | moderate protection | IC50 (H3R): 2990 nM; effect on the level of cAMP when treated alone (intracellular cAMP): no significant effects

The next lines start with the molecule.

Structure (SMILES) | melting point [°C] | % Antagonism 100 nM (H3R) [%] | % Antagonism 1 μM (H3R) [%] | protection against MES-induced convulsions (reduction or abolition of THLE) (MES-induced convulsions) | other results
O=C1NC(c2ccccc2)(c2ccccc2)C(=O)N1CCCN1CCCCC1 [H3R ligand I] | – | – | – | – | PTZ (rats) (PTZ; 10 mg/kg i.p.): protection; MES (rats) (MES [1]; 1 mg/kg i.p.): protection
C=C[C@@]1(C)CC(=O)[C@]2(O)[C@@]3(C)[C@@H](O)CCC(C)(C)[C@@H]3[C@H](O)[C@H](OC(C)=O)[C@@]2(C)O1 [forskolin, reference compound] | – | – | – | – | rise of the cAMP level compared to the control group (intracellular cAMP; forskolin 2 µM): more than 200 times
c1ccc(-c2ccc(-c3nncn3-c3ccc(OCCCN4CCCCC4)cc3)cc2)cc1 [Compound 3n, 1-(3-(4-(3-([1,1’-biphenyl]-4-yl)-4H-1,2,4-triazol-4-yl)phenoxy)propyl)piperidine] | 66 to 68 | 1.03 ± 7.79 | 3.36 ± 1.27 | – | –
c1ccc(-c2nncn2-c2ccc(OCCCN3CCCCC3)cc2)cc1 [Compound 3l, 1-(3-(4-(3-phenyl-4H-1,2,4-triazol-4-yl)phenoxy)propyl)piperidine] | 88 to 90 | 148.62 ± 4.43 | 169.04 ± 15.04 | moderate protection | IC50 (H3R): 7.81 nM; effect on the level of cAMP when treated alone (intracellular cAMP): no significant effects
C[C@@H](N)Cc1cnc[nH]1 [RAMH, R-(α)-methyl-histamine, reference compound] | – | – | – | – | effect on duration of THLE, administered alone (MES-induced convulsions; 10 mg/kg i.p. alone, p > 0.05 vs saline): did not affect the duration of THLE
NC(=NCc1ccc(Cl)cc1)SCCCc1cnc[nH]1 [Clobenpropit] | – | – | – | – | MES (mice) (MES [2]; 0.3, 1, 3 mg/kg i.p.): protection; PTZ (rats) (PTZ; 10 μg & 20 μg icv): protection
CCCCCCOc1ccc(-n2cnnc2)cc1 [III] | – | – | – | – | MES (mice) (MES [2]; 10 mg/kg i.p.): protection
O=C(c1ccc(OCCCc2cnc[nH]2)cc1)C1CC1 [CPX, ciproxifan, reference compound] | – | 33.96 ± 8.59 | 63.05 ± 9.33 | – | effect on the level of cAMP when treated alone (intracellular cAMP): no significant effects
Cc1nncn1-c1ccc(OCCCN2CCCCC2)cc1.Cl [Compound 3k, 1-(3-(4–(3-methyl-4H-1,2,4-triazol-4-yl)phenoxy)propyl)piperidine hydrochloride] | 240 to 242 | 133.91 ± 8.91 | 183.54 ± 14.41 | did not achieve a significant difference from the control group | IC50 (H3R): 21 nM; effect on the level of cAMP when treated alone (intracellular cAMP): no significant effects
CCC(C)(C)c1ccc(OCCCN2CCCCC2)cc1 [DL-77] | – | – | – | – | MES (rats) (MES [1]; 5, 10, 15 mg/kg): protection
NCCc1c[nH]cn1 [Histamine] | – | – | – | – | effect on the level of cAMP when treated alone (intracellular cAMP): no significant effects
